Reference: patent US20120065228A1, “COMPOSITIONS AND METHODS FOR TREATING, CONTROLLING, REDUCING, OR AMELIORATING OCULAR INFLAMMATORY WITH LOWER RISK OF INCREASED INTRAOCULAR PRESSURE” (priority 2007, published 2012)
Where “and” joins values, the source holds several entries; their conditions need not be identical. Equal entries are not always repeated.

How the values were obtained:
[1] = tested on: intraocular pressure (IOP) in New Zealand White rabbits; experiment: Intraocular pressure in New Zealand White rabbits, topical dosing four times daily; format: in vivo
Description: On Days 1-31, animals received daily topical doses of the appropriate test article into the right eye. Animals were dosed four times per day, with doses administered 2 hours apart. Doses were administered using a calibrated 50-μL pipette. The eyelids were held close for 10 seconds immediately following dosing. The time of each dose administration was recorded.
Intraocular pressure (“IOP”) was determined for both eyes of each animal on Days 3, 5, 10, 12, 16, 18, 22, 24, 26, 30, and 32. LOP was evaluated with a Medtronic Solan, Model 30 classic pneumatonometer. Proparacaine hydrochloride 0.5% (1 drop) was delivered to each eye prior to IOP measurement. IOP was measured on Monday, Wednesday, and Friday of each week. A two-point diurnal curve was established: IOP was recorded at 8 a.m. and 12 p.m. on Day 3, and at 8 a.m. and 2 p.m. on later days, with a ±1 hour range for each of these times. The time of the measurements was recorded.
Descriptive statistics were prepared for IOP data of each treatment group (left and right eyes separately) at each measurement interval. The statistics included the number of observations (“N”), mean, standard deviation (“STD”), and standard error (“SEM”). Statistical analyses were conducted on IOP results using Statistical Analysis Systems (SAS Institute, Inc., Cary, N.C., V8.0). Parameters were evaluated using analysis of variance/GLM Procedure followed by Tukey's Standardized Range Test (Tukey, 1985) for post hoc comparisons of group means. The level of significance was set at a probability of p<0.05 for all statistical procedures. Group IOP means were compared at each interval, with left and right eyes compared separately.
IOP data for the following six animals were excluded from group statistics: Group A, Nos. 3081, 3037, 3068, and 3011; Group C, No. 3034; and Group E, No. 3084.

[2] = tested on: Myeloperoxidase (MPO); experiment: Myeloperoxidase (MPO) activity in iris-ciliary body, rabbit paracentesis model; format: in vivo; details: for MPO Unit/g: iris-ciliary body samples collected after the second paracentesis, individual eyes (DX/SX), listed as BOL; for MPO activity in iris-ciliary body, Mean: after the second paracentesis
Description: Each rabbit was placed in a restraint device and tagged with the alphanumeric code. The formulations were instilled (50 μl) into the conjunctival sac of both eyes 180, 120, 90 and 30 min before the first paracentesis; then 15, 30, 90 min after the first paracentesis. To perform the first paracentesis the animals were anaesthetized by intravenous injection of 5 mg/kg Zoletil® (Virbac; 2.5 mg/kg tiletamine HCl and 2.5 mg/kg zolazepam HCl) and one drop of local anesthetic (Novesina®, Novartis) was administered to the eye. Anterior chamber paracentesis was performed with a 26 G needle attached to a tuberculin syringe; the needle was introduced into the anterior chamber through the cornea, taking care not to damage the tissues. Two hours after the ® first paracentesis, the animals were sacrificed with 0.4 ml Tanax® (Intervet International B.V.) and the second paracentesis was performed. About 100 μl of aqueous humor were removed at the second paracentesis. Aqueous humor was immediately split in four aliquots and stored at −80° C. until analysis. Then both eyes were enucleated and the iris-ciliary body was carefully excised, placed in polypropylene tubes, and stored at −80° C. until analysis.
The activity of MPO was measured as previously described by Williams et al. The iris-ciliary bodies were carefully dried, weighed and immersed in 1 ml of hexa-decyl-trimethyl-ammonium bromide solution. Then, the samples were sonicated for 10 sec on ice by a ultrasound homogenizer (HD 2070, Bandelin electronic), freeze-thawed three times, sonicated for 10 sec and centrifuged at 14,000 g for 10 min to remove cellular debris. An aliquot of the supernatant (40-200 μl) was diluted to 3 ml with the o-dianisidine 2HCl/H2O2 solution. The change in absorbance at 460 nm was continuously monitored for 5 min by a spectrophotometer (UV/Vis Spectrometer Lambda EZ 201; Perkin Elmer). The slope of the line (Δ/min) was determined for each sample and used to calculate the number of units of MPO in the tissue as follows:
were ε=11.3 mM^−1. Values were expressed as units of MPO/g of tissue.
Pupillary diameter, PGE2, protein, PMN, and MPO were expressed as mean±SEM. Statistical analysis was performed using one way ANOVA followed by a Newman-Keuls post hoc test. Clinical score was expressed as % of eyes and the statistical analysis was performed using Kruskal-Wallis followed by a Dunn post hoc test. P<0.05 was considered statistically significant in both cases. Prism 4 software (GraphPad Software, Inc.) was used for the analysis and graphs.

## Cc1ccc2c(NCC(O)(CC(C)(C)c3cc(F)cc4c3OCC4)C(F)(F)F)cccc2n1 (stereo not shown) [BOL-303242-X]
[1]; treated right eyes, A.M. readings, Day 18, 1 mg/g (Group D)
  Intraocular Pressure, MEAN: 23.7 mmHg
[1]; treated right eyes, A.M. readings, Day 18, 5 mg/g (Group C)
  Intraocular Pressure, MEAN: 23.9 mmHg
[1]; treated right eyes, A.M. readings, Day 18, 10 mg/g (Group B)
  Intraocular Pressure, MEAN: 22.3 mmHg
[1]; treated right eyes, A.M. readings, Day 22, 1 mg/g (Group D)
  Intraocular Pressure, MEAN: 23.2 mmHg
[1]; treated right eyes, A.M. readings, Day 22, 5 mg/g (Group C)
  Intraocular Pressure, MEAN: 22.4 mmHg
[1]; treated right eyes, A.M. readings, Day 22, 10 mg/g (Group B)
  Intraocular Pressure, MEAN: 22.4 mmHg
[1]; treated right eyes, A.M. readings, Day 24, 1 mg/g (Group D)
  Intraocular Pressure, MEAN: 22.1 mmHg
[1]; treated right eyes, A.M. readings, Day 24, 5 mg/g (Group C)
  Intraocular Pressure, MEAN: 23.8 mmHg
[1]; treated right eyes, A.M. readings, Day 24, 10 mg/g (Group B)
  Intraocular Pressure, MEAN: 21.2 mmHg
[1]; treated right eyes, A.M. readings, Day 26, 1 mg/g (Group D)
  Intraocular Pressure, MEAN: 23.1 mmHg
[1]; treated right eyes, A.M. readings, Day 26, 5 mg/g (Group C)
  Intraocular Pressure, MEAN: 22.1 mmHg
[1]; treated right eyes, A.M. readings, Day 26, 10 mg/g (Group B)
  Intraocular Pressure, MEAN: 21.8 mmHg
[1]; treated right eyes, A.M. readings, Day 30, 1 mg/g (Group D)
  Intraocular Pressure, MEAN: 24.2 mmHg
[1]; treated right eyes, A.M. readings, Day 30, 5 mg/g (Group C)
  Intraocular Pressure, MEAN: 22.9 mmHg
[1]; treated right eyes, A.M. readings, Day 30, 10 mg/g (Group B)
  Intraocular Pressure, MEAN: 22.7 mmHg
[1]; treated right eyes, A.M. readings, Day 32, 1 mg/g (Group D)
  Intraocular Pressure, MEAN: 24.9 mmHg
[1]; treated right eyes, A.M. readings, Day 32, 5 mg/g (Group C)
  Intraocular Pressure, MEAN: 23.4 mmHg
[1]; treated right eyes, A.M. readings, Day 32, 10 mg/g (Group B)
  Intraocular Pressure, MEAN: 23.9 mmHg
[1]; treated right eyes, A.M. readings, Pre-Study, 1 mg/g (Group D)
  Intraocular Pressure, MEAN: 24.4 mmHg
[1]; treated right eyes, A.M. readings, Pre-Study, 5 mg/g (Group C)
  Intraocular Pressure, MEAN: 24.8 mmHg
[1]; treated right eyes, A.M. readings, Pre-Study, 10 mg/g (Group B)
  Intraocular Pressure, MEAN: 24.0 mmHg
[1]; untreated left eyes, P.M. readings, Day 3, 1 mg/g (Group D)
  Intraocular Pressure, MEAN: 25.0 mmHg
[1]; untreated left eyes, P.M. readings, Day 3, 5 mg/g (Group C)
  Intraocular Pressure, MEAN: 23.9 mmHg
[1]; untreated left eyes, P.M. readings, Day 3, 10 mg/g (Group B)
  Intraocular Pressure, MEAN: 23.3 mmHg
[1]; untreated left eyes, P.M. readings, Day 5, 1 mg/g (Group D)
  Intraocular Pressure, MEAN: 24.7 mmHg
[1]; untreated left eyes, P.M. readings, Day 5, 5 mg/g (Group C)
  Intraocular Pressure, MEAN: 24.8 mmHg
[1]; untreated left eyes, P.M. readings, Day 5, 10 mg/g (Group B)
  Intraocular Pressure, MEAN: 25.2 mmHg
[1]; untreated left eyes, P.M. readings, Day 10, 1 mg/g (Group D)
  Intraocular Pressure, MEAN: 24.9 mmHg
[1]; untreated left eyes, P.M. readings, Day 10, 5 mg/g (Group C)
  Intraocular Pressure, MEAN: 24.6 mmHg
[1]; untreated left eyes, P.M. readings, Day 10, 10 mg/g (Group B)
  Intraocular Pressure, MEAN: 23.5 mmHg
[1]; untreated left eyes, P.M. readings, Day 12, 1 mg/g (Group D)
  Intraocular Pressure, MEAN: 23.7 mmHg
[1]; untreated left eyes, P.M. readings, Day 12, 5 mg/g (Group C)
  Intraocular Pressure, MEAN: 23.3 mmHg
[1]; untreated left eyes, P.M. readings, Day 12, 10 mg/g (Group B)
  Intraocular Pressure, MEAN: 24.1 mmHg
[1]; untreated left eyes, P.M. readings, Day 16, 1 mg/g (Group D)
  Intraocular Pressure, MEAN: 21.9 mmHg
[1]; untreated left eyes, P.M. readings, Day 16, 5 mg/g (Group C)
  Intraocular Pressure, MEAN: 20.4 mmHg
[1]; untreated left eyes, P.M. readings, Day 16, 10 mg/g (Group B)
  Intraocular Pressure, MEAN: 21.4 mmHg
[1]; untreated left eyes, P.M. readings, Day 18, 1 mg/g (Group D)
  Intraocular Pressure, MEAN: 22.7 mmHg
[1]; untreated left eyes, P.M. readings, Day 18, 5 mg/g (Group C)
  Intraocular Pressure, MEAN: 21.9 mmHg
[1]; untreated left eyes, P.M. readings, Day 18, 10 mg/g (Group B)
  Intraocular Pressure, MEAN: 22.1 mmHg
[1]; untreated left eyes, P.M. readings, Day 22, 1 mg/g (Group D)
  Intraocular Pressure, MEAN: 22.1 mmHg
[1]; untreated left eyes, P.M. readings, Day 22, 5 mg/g (Group C)
  Intraocular Pressure, MEAN: 22.1 mmHg
[1]; untreated left eyes, P.M. readings, Day 22, 10 mg/g (Group B)
  Intraocular Pressure, MEAN: 22.6 mmHg
[1]; untreated left eyes, P.M. readings, Day 24, 1 mg/g (Group D)
  Intraocular Pressure, MEAN: 22.9 mmHg
[1]; untreated left eyes, P.M. readings, Day 24, 5 mg/g (Group C)
  Intraocular Pressure, MEAN: 22.2 mmHg
[1]; untreated left eyes, P.M. readings, Day 24, 10 mg/g (Group B)
  Intraocular Pressure, MEAN: 22.8 mmHg
[1]; untreated left eyes, P.M. readings, Day 26, 1 mg/g (Group D)
  Intraocular Pressure, MEAN: 22.1 mmHg
[1]; untreated left eyes, P.M. readings, Day 26, 5 mg/g (Group C)
  Intraocular Pressure, MEAN: 22.3 mmHg
[1]; untreated left eyes, P.M. readings, Day 26, 10 mg/g (Group B)
  Intraocular Pressure, MEAN: 21.4 mmHg
[1]; untreated left eyes, P.M. readings, Day 30, 10 mg/g (Group B)
  Intraocular Pressure, MEAN: 21.7 mmHg
[2]; 0.1% BOL
  MPO Unit/g: 1.04 Unit/g and 1.00 Unit/g and 1.14 Unit/g and 1.06 Unit/g and 1.22 Unit/g and 0.61 Unit/g and 1.05 Unit/g and 0.65 Unit/g
[2]; 0.1% topical formulation
  MPO activity in iris-ciliary body, Mean: 0.971 MPO Unit/g
[2]; 0.5% BOL
  MPO Unit/g: 0.85 Unit/g and 0.93 Unit/g and 0.79 Unit/g and 1.03 Unit/g and 0.75 Unit/g and 0.74 Unit/g and 0.54 Unit/g and 0.58 Unit/g
[2]; 0.5% topical formulation
  MPO activity in iris-ciliary body, Mean: 0.775 MPO Unit/g
[2]; 1% BOL
  MPO Unit/g: 0.66 Unit/g and 0.68 Unit/g and 0.49 Unit/g and 0.40 Unit/g and 0.34 Unit/g and 1.02 Unit/g and 0.31 Unit/g and 0.43 Unit/g
[2]; 1% topical formulation
  MPO activity in iris-ciliary body, Mean: 0.542 MPO Unit/g
